Experimental data: the supplement of paper PMC8671470

Experiments:
Assay in all cases: area under dose-response curve (viability, 1 nM-10 uM) (fraction (0-1)); higher = more sensitive
Details in all cases: 72 h
HL-60 = tested on: HL-60
In short: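 For each screen, HL-60 cells in RPMI 1640 with 10% FBS carried either DMSO or 100 nM of one of three metabolic inhibitors while the full library was applied at five tenfold concentrations, 1–10,000 nM, in duplicate. Plates were 384-well and were kept 72 h at 37 °C, 5% CO2. Viability, measured by CellTiter-Glo, was normalised to wells with DMSO and with 10 μM proteasome inhibitor. Where area under the curve appears, it was fitted by four-parameter log-logistic models in drc and PharmacoGx.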

[1] = tested on: myeloid leukemia patient primary cells Pat.10
Description: (§1)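 AUC (0–1, higher = more sensitive) of the 5-point dose–response (1 nM–10 µM, 72 h, CellTiter-Glo) in primary AML/CML patient mononuclear cells. 0.030103 is the floor for inactive compounds.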

[2] = tested on: myeloid leukemia patient primary cells Pat.11
Description: as §1

[3] = tested on: myeloid leukemia patient primary cells Pat.12
Description: as §1

[4] = tested on: myeloid leukemia patient primary cells Pat.13
Description: as §1

[5] = tested on: myeloid leukemia patient primary cells Pat.14
Description: as §1

[6] = tested on: myeloid leukemia patient primary cells Pat.15
Description: as §1

[7] = tested on: myeloid leukemia patient primary cells Pat.1
Description: as §1

[8] = tested on: myeloid leukemia patient primary cells Pat.2
Description: as §1

[9] = tested on: myeloid leukemia patient primary cells Pat.3
Description: as §1

[10] = tested on: myeloid leukemia patient primary cells Pat.4
Description: as §1

[11] = tested on: myeloid leukemia patient primary cells Pat.5
Description: as §1

[12] = tested on: myeloid leukemia patient primary cells Pat.6
Description: as §1

[13] = tested on: myeloid leukemia patient primary cells Pat.7
Description: as §1

[14] = tested on: myeloid leukemia patient primary cells Pat.8
Description: as §1

[15] = tested on: myeloid leukemia patient primary cells Pat.9
Description: as §1

[16] = co-treatment: GSK2194069 100 nM
[17] = co-treatment: pictilisib 100 nM

| SMILES | area under dose-response curve (HL-60; co-treatment: AZD3965 100 nM) | area under dose-response curve (HL-60; co-treatment: DMSO vehicle) | area under dose-response curve (HL-60; [16]) | area under dose-response curve (HL-60; [17]) | area under dose-response curve [1] | area under dose-response curve [2] | area under dose-response curve [3] | area under dose-response curve [4] | area under dose-response curve [5] | area under dose-response curve [6] | area under dose-response curve [7] | area under dose-response curve [8] | area under dose-response curve [9] | area under dose-response curve [10] | area under dose-response curve [11] | area under dose-response curve [12] | area under dose-response curve [13] | area under dose-response curve [14] | area under dose-response curve [15] |
| --- | --- | --- | --- | --- | --- | --- | --- | --- | --- | --- | --- | --- | --- | --- | --- | --- | --- | --- | --- |
| C[C@H]1O[C@@H](O[C@H]2[C@@H](O)C[C@H](O[C@H]3[C@@H](O)C[C@H](O[C@H]4CC[C@@]5(C)[C@H](CC[C@@H]6[C@@H]5C[C@@H](O)[C@]5(C)[C@@H](C7=CC(=O)OC7)CC[C@]65O)C4)O[C@@H]3C)O[C@@H]2C)C[C@H](O)[C@@H]1O [Digoxin] | 0.459 | 0.479 | 0.423 | 0.486 | < 0.0301 | 0.471 | 0.275 | 0.384 | 0.363 | 0.493 | 0.348 | 0.346 | 0.624 | 0.42 | 0.611 | 0.328 | < 0.0301 | 0.425 | 0.609 |
| C[C@]12O[C@H](C[C@]1(O)CO)n1c3ccccc3c3c4c(c5c6ccccc6n2c5c31)CNC4=O [Lestaurtinib] | 0.381 | 0.293 | 0.335 | 0.452 | 0.124 | 0.235 | 0.125 | 0.23 | 0.261 | 0.533 | 0.654 | 0.232 | 0.363 | 0.622 | 0.929 | 0.096 | 0.191 | 0.211 | 0.813 |
